Experimental data as given in US20090062294A1, “HETEROARYL-SUBSTITUTED UREA MODULATORS OF FATTY ACID AMIDE HYDROLASE” (priority 2007, published 2009).
Where a name gives a salt, the structure may show the parent alone.

Key:
[1] = test system: spasticity; conditions: model of multiple sclerosis; cited from earlier work
[2] = test system: acute thermal nociception; conditions: rats; cited from earlier work
[3] = test system: neuropathic pain; conditions: rats; cited from earlier work
[4] = test system: mechanical (tactile) allodynia in the left hind paw; assay: Assay Method 3: Rat Mild Thermal Injury Model (MTI), mechanical allodynia; format: in vivo, Sprague-Dawley rats; conditions: 0.5 h after administration
From the text: Assay Method 3—Rat Mild Thermal Injury Model (MTI)
Pathogen-free, male albino Sprague-Dawley rats were purchased from Harlan Industries (San Diego, Calif.) and maintained on a 12-h light/dark cycle (lights on at 9:00 AM and off at 9:00 PM) in a climate-controlled room. Food and water were available ad libitum up to the time of the testing.
Under isoflurane/oxygen anesthesia, a first-degree burn injury (erythema without blistering) was produced as follows: the plantar surface of the rat's left hind paw was placed on water-dampened 56° C. hotplate for 20 seconds and steady contact was maintained by applying an 84 g weight to the dorsum (after Nozaki-Taguchi & Yaksh, Neurosci. Lett. 1998, 254, 25-28).
Mild thermal injury results in mechanical allodynia in the left hind paw. Mechanical (tactile) allodynia was assessed by determining the median threshold at which the affected paw was withdrawn from graded stimuli (von Frey filaments ranging from 0.41 to 15.8 g) applied perpendicularly with sufficient force to bend slightly and held for 2-3 seconds against the proximal half of the third and fourth toe surfaces through wire-mesh observation cages. Paw flinching during or immediately following the removal of the stimulus was considered a positive response. A paw withdrawal threshold (PWT) was determined by sequentially increasing and decreasing the stimulus strength and analyzing withdrawal data using an adaptation of the Dixon up-down method, as described (Chaplan et al., J. Neurosci. 1994, 53, 55-63). Rats were included in the study only if their baseline PWT was 3.1623 g or lower (4.5 logarithmically).
Rats were tested for pre-injury thresholds prior to mild thermal injury and again for baseline thresholds after development of mechanical allodynia. Immediately after baseline measurement, test compound or vehicle was administered orally and the measurement was repeated at 0.5 h after administration. The tactile thresholds (log value) were converted to percent of a maximum possible effect ( %MPE): % MPE=[Threshold(t)−Threshold(baseline)]*100/[Threshold(pre)−Threshold(baseline)], where t=post-treatment time. Data were expressed as mean±standard error of the mean (S.E.M.). Statistical analysis was performed using two-way ANOVA with repeated measures with a significance level of p<0.05.
Results for compounds tested in this assay are presented in Table 2, as an average of results obtained. Compounds were tested in free base, hydrochloride salt, and/or trifluoroacetic acid salt forms.

[5] = molecular target: T1, rat FAAH (Rattus norvegicus, UniProt P97612); assay: Assay Method 2: FAAH assay, 3H-anandamide hydrolysis in homogenate of SK-N-MC cells transfected with rat FAAH; format: biochemical; conditions: average of results, > = solubility limit or highest concentration tested
T1 sequence (P97612 1-579): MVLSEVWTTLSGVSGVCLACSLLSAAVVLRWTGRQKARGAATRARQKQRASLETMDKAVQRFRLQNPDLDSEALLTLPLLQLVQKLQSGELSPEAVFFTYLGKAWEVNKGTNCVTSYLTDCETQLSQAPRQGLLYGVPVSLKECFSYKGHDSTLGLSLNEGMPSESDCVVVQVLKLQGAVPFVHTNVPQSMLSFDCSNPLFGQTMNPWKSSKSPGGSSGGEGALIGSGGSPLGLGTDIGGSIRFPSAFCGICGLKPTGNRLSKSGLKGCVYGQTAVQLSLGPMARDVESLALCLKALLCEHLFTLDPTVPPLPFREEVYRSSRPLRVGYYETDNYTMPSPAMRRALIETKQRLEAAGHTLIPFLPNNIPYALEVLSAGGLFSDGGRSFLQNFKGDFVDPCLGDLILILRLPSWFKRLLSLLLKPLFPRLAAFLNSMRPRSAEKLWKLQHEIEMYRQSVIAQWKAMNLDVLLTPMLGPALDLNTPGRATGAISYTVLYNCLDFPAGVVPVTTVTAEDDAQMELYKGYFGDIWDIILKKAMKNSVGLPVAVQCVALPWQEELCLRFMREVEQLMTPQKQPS
Procedure, shortened: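 Read-out is scintillation counting of [3H]-ethanolamine passing through activated charcoal, after 1 h at rt with 80 nM final [3H]-AEA. Enzyme source: lysate of G418-selected SK-N-MC clones expressing rat FAAH, homogenized in Tris/EDTA/glycerol/0.02% Triton buffer, pH 9.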

[6] = molecular target: T2, FAAH (Homo sapiens, UniProt O00519); assay: Assay Method 1: FAAH assay, 3H-anandamide hydrolysis in homogenate of T84 cells or SK-N-MC cells transfected with human FAAH; format: biochemical; conditions: average of results, > = solubility limit or highest concentration tested
T2 sequence (O00519 1-579): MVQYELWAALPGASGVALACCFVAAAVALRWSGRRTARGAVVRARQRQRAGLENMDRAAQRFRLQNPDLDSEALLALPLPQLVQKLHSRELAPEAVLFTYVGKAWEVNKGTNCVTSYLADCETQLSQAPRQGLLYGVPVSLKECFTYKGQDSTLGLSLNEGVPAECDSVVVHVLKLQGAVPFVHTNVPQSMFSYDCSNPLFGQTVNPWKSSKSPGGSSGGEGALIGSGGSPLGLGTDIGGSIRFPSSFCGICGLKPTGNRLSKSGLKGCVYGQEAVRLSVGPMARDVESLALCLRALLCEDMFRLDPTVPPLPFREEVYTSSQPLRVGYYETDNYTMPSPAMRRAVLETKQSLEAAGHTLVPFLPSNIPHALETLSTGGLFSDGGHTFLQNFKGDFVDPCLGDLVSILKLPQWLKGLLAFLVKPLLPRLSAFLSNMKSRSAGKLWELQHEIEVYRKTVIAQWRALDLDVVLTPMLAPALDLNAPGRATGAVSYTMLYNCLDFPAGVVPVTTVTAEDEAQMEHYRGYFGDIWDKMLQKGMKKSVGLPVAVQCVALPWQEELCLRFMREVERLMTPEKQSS
Procedure, shortened: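 Hydrolysis of ^3H-anandamide (80 nM final, added last) was measured over 1 h at rt, using test compound with homogenate of T84 cells or human FAAH-transfected SK-N-MC cells. The homogenization buffer was 125 mM Tris, 1 mM EDTA, 0.02% Triton X-100, pH 9. Unbound labelled ethanolamine was passed through charcoal filters and scintillation-counted.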

[7] = test system: thermal nociception; conditions: rats; cited from earlier work
[8] = molecular target: T2, FAAH; conditions: cited from earlier work
[9] = test system: thermal nociception; conditions: rats; cited from earlier work; remark: listed apart in the source
[10] = test system: pain; conditions: rat; cited from earlier work
[11] = test system: anxiety; conditions: rats; cited from earlier work

| Compound | IC50 [5] [nM] | IC50 [6] [nM] | also measured |
| --- | --- | --- | --- |
| CCCCCCCCCCCCCCCCS(=O)(=O)F [AM374] |  |  | spasticity in CREAE mice [1]: significantly reduce spasticity |
| Cc1nc(-c2ccccc2)c(-c2ccccc2)n1CCCCCCNC(=O)Oc1ccccc1F [BMS-1] |  |  | analgesic effect in Hargraves test [2]: analgesic effect; analgesic effect in Chung spinal nerve ligation model [3]: analgesic effect |
| O=C(Nc1ccon1)N1CCN(Cc2cccc(Oc3ccc(Cl)cc3)c2)CC1 [Example 46, 4-[3-(4-Chloro-phenoxy)-benzyl]-piperazine-1-carboxylic acid isoxazol-3-ylamide trifluoroacetic acid salt] |  |  | % MPE ([4]; 6 mg/Kg p.o.): 0% |
| O=C(Nc1cnccn1)N1CCN(Cc2cccc(Oc3ccc4ncccc4c3)c2)CC1 [Example 232, N-Pyrazin-2-yl-4-[3-(quinolin-6-yloxy)benzyl]piperazine-1-carboxamide] | 240 | 40 |  |
| N#Cc1cccc(Oc2cccc(CN3CCN(C(=O)Nc4cnccn4)CC3)c2)c1 [Example 235, 4-[3-(3-Cyanophenoxy)benzyl]-N-pyrazin-2-ylpiperazine-1-carboxamide] | 6000 | 600 |  |
| N#Cc1ccc(Oc2cccc(CN3CCN(C(=O)Nc4cnccn4)CC3)c2)cc1C(F)(F)F [Example 236, 4-{3-[4-Cyano-3-(trifluoromethyl)phenoxy]benzyl}-N-Pyrazin-2-ylpiperazine-1-carboxamide] | 8000 | 300 |  |
| O=C(Nc1cnccn1)N1CCN(Cc2cccc(Oc3ccc4c(c3)OC(F)(F)O4)c2)CC1 [Example 237, 4-{3-[(2,2-Difluoro-1,3-benzodioxol-5-yl)oxy]benzyl}-N-pyrazin-2-ylpiperazine-1-carboxamide] | 30 | 5 |  |
| O=C(Nc1cnccn1)N1CCN(Cc2ccc3ccccc3n2)CC1 [Example 239, N-Pyrazin-2-yl-4-(quinolin-2-ylmethyl)piperazine-1-carboxamide] | 6000 | 700 |  |
| O=C(Nc1cnccn1)N1CCN(Cc2cccc(Oc3ccc(F)c(C(F)(F)F)c3)c2)CC1 [Example 241, 4-{3-[4-Fluoro-3-(trifluoromethyl)phenoxy]benzyl}-N-pyrazin-2-ylpiperazine-1-carboxamide] | 370 | 8 |  |
| O=C(Nc1cnccn1)N1CCN(Cc2cccc(Oc3cccc(OC(F)(F)F)c3)c2)CC1 [Example 242, N-Pyrazin-2-yl-4-{3-[3-(trifluoromethoxy)phenoxy]benzyl}piperazine-1-carboxamide] | 50 | 9 |  |
| O=C(CCCCCCc1ccccc1)c1ncc(-c2ccccn2)o1 [OL-135] |  |  | analgesic efficacy/activity in hot plate test [7]: analgesic activity; inhibition of FAAH [8]: potent inhibitor; analgesic activity in tail emersion test [9]: analgesic activity |
| NC(=O)c1cccc(-c2cccc(OC(=O)NC3CCCCC3)c2)c1 [URB-597] |  |  | analgesic efficacy/activity in hot plate test [7]: analgesic efficacy; analgesic efficacy in formalin test [10]: analgesic efficacy; efficacy in zero plus maze model of anxiety [11]: efficacy |

Further lines, with some results ahead:

| IC50 [5] [nM] | IC50 [6] [nM] | Compound | also measured |
| --- | --- | --- | --- |
| 10 |  | O=C(Nc1noc2ccccc12)N1CCN(Cc2cccc(Oc3ccc(Cl)cc3)c2)CC1 [Example 36, 4-[3-(4-Chloro-phenoxy)-benzyl]-piperazine-1-carboxylic acid benzo[d]isoxazol-3-ylamide trifluoroacetic acid salt] | % MPE ([4]; 20 mg/Kg p.o., mean +/- S.E.M.): 38 +/− 13% |
| 9 |  | O=C(Nc1cnccn1)N1CCN(Cc2cccc(Oc3ccc(Cl)cc3)c2)CC1 [Example 58, 4-[3-(4-Chloro-phenoxy)-benzyl]-piperazine-1-carboxylic acid pyrazin-2-ylamide trifluoroacetic acid salt] | % MPE ([4]; 20 mg/Kg p.o., mean +/- S.E.M.): 52 +/− 7% |
| 140 | 10 | O=C(Nc1cnccn1)N1CCN(Cc2cccc(Oc3ccc(OC(F)(F)F)cc3)c2)CC1 [Example 233, N-Pyrazin-2-yl-4-{3-[4-(trifluoromethoxy)phenoxy]benzyl}piperazine-1-carboxamide] |  |
| 12 | 6 | O=C(Nc1cnccn1)N1CCN(Cc2cccc(Oc3ccc(SC(F)(F)F)cc3)c2)CC1 [Example 234, N-Pyrazin-2-yl-4-(3-{4-[(trifluoromethyl)sulfanyl]phenoxy}benzyl)-piperazine-1-carboxamide] |  |
| 1600 | 200 | O=C(Nc1cnccn1)N1CCN(Cc2cccc(Oc3ccccc3Cl)c2)CC1 [Example 238, 4-[3-(2-Chlorophenoxy)benzyl]-N-pyrazin-2-ylpiperazine-1-carboxamide] |  |
| 80 | 20 | O=C(Nc1cnccn1)N1CCN(Cc2cccc(Oc3cccc(Br)c3)c2)CC1 [Example 240, 4-[3-(3-Bromophenoxy)benzyl]-N-pyrazin-2-ylpiperazine-1-carboxamide] |  |
| 9 | 2 | O=C(Nc1nccnc1Cl)N1CCN(Cc2cccc(Oc3ccc(Cl)cc3)c2)CC1 [Example 243, 4-[3-(4-Chlorophenoxy)benzyl]-N-(3-chloropyrazin-2-yl)piperazine-1-carboxamide] |  |
| 7000 | 1400 | O=C(Nc1cc(-c2ccccc2)[nH]n1)N1CCN(Cc2cccc(Oc3ccc(Cl)cc3)c2)CC1 [Example 244, 4-[3-(4-Chlorophenoxy)benzyl]-N-(5-phenyl-1H-pyrazol-3-yl)piperazine-1-carboxamide trifluoroacetate salt] |  |
| 199 |  | O=C(Nc1cccnn1)N1CCN(Cc2cccc(Oc3ccc(Cl)cc3)c2)CC1 [Example 246, 4-[3-(4-Chloro-phenoxy)-benzyl]-piperazine-1-carboxylic acid pyridazin-3-ylamide] | % MPE ([4]; 20 mg/Kg p.o., mean +/- S.E.M.): 32 +/− 3% |
